Laboratory results published in the supplement of paper PMC10307832.

How the values were obtained:
Experiment in all cases: relative viability (nuclei count vs DMSO), 5 days (fraction); higher = more cells survive
Adavosertib + Lapatinib = compound: C=CCn1c(=O)c2cnc(Nc3ccc(N4CCN(C)CC4)cc3)nc2n1-c1cccc(C(C)(C)O)n1 [Adavosertib] + CS(=O)(=O)CCNCc1ccc(-c2ccc3ncnc(Nc4ccc(OCc5cccc(F)c5)c(Cl)c4)c3c2)o1 [Lapatinib] (partner 2 µM)
Outline: (§1)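 Relative viability divides the nuclei count in treated wells by that in vehicle wells. Lung cancer cell lines were seeded in 1536-well plates, dosed by pin tool the next day, and fixed and stained after 5 days in one step with final 0.05% Triton X-100, 1% formaldehyde and 1 ug/ml Hoechst. Dosing was a single drug or a fixed anchor-drug dose plus five library-drug doses (not always all listed) in √10 steps, and values are medians of duplicate plates imaged at 4×.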

Adavosertib + Foretinib = compound: C=CCn1c(=O)c2cnc(Nc3ccc(N4CCN(C)CC4)cc3)nc2n1-c1cccc(C(C)(C)O)n1 [Adavosertib] + COc1cc2c(Oc3ccc(NC(=O)C4(C(=O)Nc5ccc(F)cc5)CC4)cc3F)ccnc2cc1OCCCN1CCOCC1 [Foretinib] (partner 0.25 µM)
Outline: as §1

Nelarabine + OSI-027 = compound: COc1nc(N)nc2c1ncn2[C@@H]1O[C@H](CO)[C@@H](O)[C@@H]1O [Nelarabine] + COc1cccc2cc(-c3nc([C@H]4CC[C@H](C(=O)O)CC4)n4ncnc(N)c34)[nH]c12 [OSI-027] (partner 0.5 µM)
Outline: as §1

Nelarabine + Olaparib = compound: COc1nc(N)nc2c1ncn2[C@@H]1O[C@H](CO)[C@@H](O)[C@@H]1O [Nelarabine] + O=C(c1cc(Cc2n[nH]c(=O)c3ccccc23)ccc1F)N1CCN(C(=O)C2CC2)CC1 [Olaparib] (partner 8 µM)
Outline: as §1

Cell Line: NCI-H650
- relative viability (Adavosertib + Lapatinib; first compound 0.01 µM): 0.856
- relative viability (Adavosertib + Lapatinib; first compound 0.03162 µM): 1.28
- relative viability (Adavosertib + Lapatinib; first compound 0.1 µM): 1.1
- relative viability (Adavosertib + Lapatinib; first compound 0.3162 µM): 0.808
- relative viability (Adavosertib + Foretinib; first compound 0.01 µM): 1.06
- relative viability (Adavosertib + Foretinib; first compound 0.03162 µM): 1.01
- relative viability (Adavosertib + Foretinib; first compound 0.1 µM): 1.06
- relative viability (Adavosertib + Foretinib; first compound 0.3162 µM): 0.889
- relative viability (Nelarabine + OSI-027; first compound 0.01 µM): 0.616
- relative viability (Nelarabine + OSI-027; first compound 0.03162 µM): 0.529
- relative viability (Nelarabine + OSI-027; first compound 0.1 µM): 0.48
- relative viability (Nelarabine + OSI-027; first compound 0.3162 µM): 0.563
- relative viability (Nelarabine + OSI-027; first compound 1 µM): 0.501
- relative viability (Nelarabine + Olaparib; first compound 0.01 µM): 0.525
- relative viability (Nelarabine + Olaparib; first compound 0.03162 µM): 0.369
- relative viability (Nelarabine + Olaparib; first compound 0.1 µM): 0.413
- relative viability (Nelarabine + Olaparib; first compound 0.3162 µM): 0.402
- relative viability (Nelarabine + Olaparib; first compound 1 µM): 0.405

Cell Line: NCI-H1651
- relative viability (Adavosertib + Lapatinib; first compound 0.01 µM): 0.956
- relative viability (Adavosertib + Lapatinib; first compound 0.03162 µM): 0.715
- relative viability (Adavosertib + Lapatinib; first compound 0.1 µM): 0.752
- relative viability (Adavosertib + Lapatinib; first compound 0.3162 µM): 0.682
- relative viability (Adavosertib + Foretinib; first compound 0.01 µM): 0.729
- relative viability (Adavosertib + Foretinib; first compound 0.03162 µM): 0.95
- relative viability (Adavosertib + Foretinib; first compound 0.1 µM): 0.812
- relative viability (Adavosertib + Foretinib; first compound 0.3162 µM): 0.723
- relative viability (Nelarabine + OSI-027; first compound 0.01 µM): 0.761
- relative viability (Nelarabine + OSI-027; first compound 0.03162 µM): 0.677
- relative viability (Nelarabine + OSI-027; first compound 0.1 µM): 0.727
- relative viability (Nelarabine + OSI-027; first compound 0.3162 µM): 0.874
- relative viability (Nelarabine + OSI-027; first compound 1 µM): 0.631
- relative viability (Nelarabine + Olaparib; first compound 0.01 µM): 0.183
- relative viability (Nelarabine + Olaparib; first compound 0.03162 µM): 0.195
- relative viability (Nelarabine + Olaparib; first compound 0.1 µM): 0.213
- relative viability (Nelarabine + Olaparib; first compound 0.3162 µM): 0.171
- relative viability (Nelarabine + Olaparib; first compound 1 µM): 0.193

Cell Line: NCI-H1993
- relative viability (Adavosertib + Lapatinib; first compound 0.01 µM): 0.798
- relative viability (Adavosertib + Lapatinib; first compound 0.03162 µM): 0.865
- relative viability (Adavosertib + Lapatinib; first compound 0.1 µM): 0.894
- relative viability (Adavosertib + Lapatinib; first compound 0.3162 µM): 0.8
- relative viability (Adavosertib + Foretinib; first compound 0.01 µM): 0.795
- relative viability (Adavosertib + Foretinib; first compound 0.03162 µM): 0.863
- relative viability (Adavosertib + Foretinib; first compound 0.1 µM): 0.83
- relative viability (Adavosertib + Foretinib; first compound 0.3162 µM): 0.838
- relative viability (Nelarabine + OSI-027; first compound 0.01 µM): 0.596
- relative viability (Nelarabine + OSI-027; first compound 0.03162 µM): 0.502
- relative viability (Nelarabine + OSI-027; first compound 0.1 µM): 0.551
- relative viability (Nelarabine + OSI-027; first compound 0.3162 µM): 0.567
- relative viability (Nelarabine + OSI-027; first compound 1 µM): 0.585
- relative viability (Nelarabine + Olaparib; first compound 0.01 µM): 1.19
- relative viability (Nelarabine + Olaparib; first compound 0.03162 µM): 0.993
- relative viability (Nelarabine + Olaparib; first compound 0.1 µM): 0.865
- relative viability (Nelarabine + Olaparib; first compound 0.3162 µM): 0.939
- relative viability (Nelarabine + Olaparib; first compound 1 µM): 0.984

Cell Line: HCC-827
- relative viability (Adavosertib + Lapatinib; first compound 0.01 µM): 0.198
- relative viability (Adavosertib + Lapatinib; first compound 0.03162 µM): 0.2
- relative viability (Adavosertib + Lapatinib; first compound 0.1 µM): 0.215
- relative viability (Adavosertib + Lapatinib; first compound 0.3162 µM): 0.191
- relative viability (Adavosertib + Foretinib; first compound 0.01 µM): 1.07
- relative viability (Adavosertib + Foretinib; first compound 0.03162 µM): 1.09
- relative viability (Adavosertib + Foretinib; first compound 0.1 µM): 1.09
- relative viability (Adavosertib + Foretinib; first compound 0.3162 µM): 0.929
- relative viability (Nelarabine + OSI-027; first compound 0.01 µM): 0.741
- relative viability (Nelarabine + OSI-027; first compound 0.03162 µM): 0.738
- relative viability (Nelarabine + OSI-027; first compound 0.1 µM): 0.76
- relative viability (Nelarabine + OSI-027; first compound 0.3162 µM): 0.595
- relative viability (Nelarabine + OSI-027; first compound 1 µM): 0.65
- relative viability (Nelarabine + Olaparib; first compound 0.01 µM): 0.673
- relative viability (Nelarabine + Olaparib; first compound 0.03162 µM): 0.622
- relative viability (Nelarabine + Olaparib; first compound 0.1 µM): 0.571
- relative viability (Nelarabine + Olaparib; first compound 0.3162 µM): 0.571
- relative viability (Nelarabine + Olaparib; first compound 1 µM): 0.463

Cell Line: SW 1573
- relative viability (Adavosertib + Lapatinib; first compound 0.01 µM): 1.22
- relative viability (Adavosertib + Lapatinib; first compound 0.03162 µM): 1.36
- relative viability (Adavosertib + Lapatinib; first compound 0.1 µM): 1.14
- relative viability (Adavosertib + Lapatinib; first compound 0.3162 µM): 1.08
- relative viability (Adavosertib + Foretinib; first compound 0.01 µM): 0.953
- relative viability (Adavosertib + Foretinib; first compound 0.03162 µM): 0.914
- relative viability (Adavosertib + Foretinib; first compound 0.1 µM): 1.13
- relative viability (Adavosertib + Foretinib; first compound 0.3162 µM): 1.2
- relative viability (Nelarabine + OSI-027; first compound 0.01 µM): 1.19
- relative viability (Nelarabine + OSI-027; first compound 0.03162 µM): 0.836
- relative viability (Nelarabine + OSI-027; first compound 0.1 µM): 0.548
- relative viability (Nelarabine + OSI-027; first compound 0.3162 µM): 0.701
- relative viability (Nelarabine + OSI-027; first compound 1 µM): 0.619
- relative viability (Nelarabine + Olaparib; first compound 0.01 µM): 0.52
- relative viability (Nelarabine + Olaparib; first compound 0.03162 µM): 0.469
- relative viability (Nelarabine + Olaparib; first compound 0.1 µM): 0.553
- relative viability (Nelarabine + Olaparib; first compound 0.3162 µM): 0.565
- relative viability (Nelarabine + Olaparib; first compound 1 µM): 0.66

Cell Line: NCI-H1944
- relative viability (Adavosertib + Lapatinib; first compound 0.01 µM): 0.765
- relative viability (Adavosertib + Lapatinib; first compound 0.03162 µM): 0.709
- relative viability (Adavosertib + Lapatinib; first compound 0.1 µM): 0.908
- relative viability (Adavosertib + Lapatinib; first compound 0.3162 µM): 0.783
- relative viability (Adavosertib + Foretinib; first compound 0.01 µM): 0.869
- relative viability (Adavosertib + Foretinib; first compound 0.03162 µM): 0.9
- relative viability (Adavosertib + Foretinib; first compound 0.1 µM): 0.842
- relative viability (Adavosertib + Foretinib; first compound 0.3162 µM): 0.717
- relative viability (Nelarabine + OSI-027; first compound 0.01 µM): 0.468
- relative viability (Nelarabine + OSI-027; first compound 0.03162 µM): 0.436
- relative viability (Nelarabine + OSI-027; first compound 0.1 µM): 0.442
- relative viability (Nelarabine + OSI-027; first compound 0.3162 µM): 0.426
- relative viability (Nelarabine + OSI-027; first compound 1 µM): 0.455
- relative viability (Nelarabine + Olaparib; first compound 0.01 µM): 0.486
- relative viability (Nelarabine + Olaparib; first compound 0.03162 µM): 0.436
- relative viability (Nelarabine + Olaparib; first compound 0.1 µM): 0.481
- relative viability (Nelarabine + Olaparib; first compound 0.3162 µM): 0.435
- relative viability (Nelarabine + Olaparib; first compound 1 µM): 0.419

Cell Line: NCI-H2170
- relative viability (Adavosertib + Lapatinib; first compound 0.01 µM): 0.273
- relative viability (Adavosertib + Lapatinib; first compound 0.03162 µM): 0.27
- relative viability (Adavosertib + Lapatinib; first compound 0.1 µM): 0.277
- relative viability (Adavosertib + Lapatinib; first compound 0.3162 µM): 0.287
- relative viability (Adavosertib + Foretinib; first compound 0.01 µM): 1.02
- relative viability (Adavosertib + Foretinib; first compound 0.03162 µM): 0.603
- relative viability (Adavosertib + Foretinib; first compound 0.1 µM): 0.923
- relative viability (Adavosertib + Foretinib; first compound 0.3162 µM): 1.07
- relative viability (Nelarabine + OSI-027; first compound 0.01 µM): 0.716
- relative viability (Nelarabine + OSI-027; first compound 0.03162 µM): 0.67
- relative viability (Nelarabine + OSI-027; first compound 0.1 µM): 0.704
- relative viability (Nelarabine + OSI-027; first compound 0.3162 µM): 0.656
- relative viability (Nelarabine + OSI-027; first compound 1 µM): 0.753
- relative viability (Nelarabine + Olaparib; first compound 0.01 µM): 0.708
- relative viability (Nelarabine + Olaparib; first compound 0.03162 µM): 0.561
- relative viability (Nelarabine + Olaparib; first compound 0.1 µM): 0.61
- relative viability (Nelarabine + Olaparib; first compound 0.3162 µM): 0.577
- relative viability (Nelarabine + Olaparib; first compound 1 µM): 0.547

Cell Line: COR-L 105
- relative viability (Adavosertib + Lapatinib; first compound 0.01 µM): 0.361
- relative viability (Adavosertib + Lapatinib; first compound 0.03162 µM): 0.428
- relative viability (Adavosertib + Lapatinib; first compound 0.1 µM): 0.373
- relative viability (Adavosertib + Lapatinib; first compound 0.3162 µM): 0.349
- relative viability (Adavosertib + Foretinib; first compound 0.01 µM): 0.781
- relative viability (Adavosertib + Foretinib; first compound 0.03162 µM): 0.872
- relative viability (Adavosertib + Foretinib; first compound 0.1 µM): 1.24
- relative viability (Adavosertib + Foretinib; first compound 0.3162 µM): 0.925
- relative viability (Nelarabine + OSI-027; first compound 0.01 µM): 0.781
- relative viability (Nelarabine + OSI-027; first compound 0.03162 µM): 0.82
- relative viability (Nelarabine + OSI-027; first compound 0.1 µM): 0.531
- relative viability (Nelarabine + OSI-027; first compound 0.3162 µM): 0.616
- relative viability (Nelarabine + OSI-027; first compound 1 µM): 0.715
- relative viability (Nelarabine + Olaparib; first compound 0.01 µM): 0.554
- relative viability (Nelarabine + Olaparib; first compound 0.03162 µM): 0.666
- relative viability (Nelarabine + Olaparib; first compound 0.1 µM): 0.592
- relative viability (Nelarabine + Olaparib; first compound 0.3162 µM): 0.697
- relative viability (Nelarabine + Olaparib; first compound 1 µM): 0.541

Cell Line: BEN
- relative viability (Adavosertib + Lapatinib; first compound 0.01 µM): 0.751
- relative viability (Adavosertib + Lapatinib; first compound 0.03162 µM): 0.728
- relative viability (Adavosertib + Lapatinib; first compound 0.1 µM): 0.801
- relative viability (Adavosertib + Lapatinib; first compound 0.3162 µM): 0.948
- relative viability (Adavosertib + Foretinib; first compound 0.01 µM): 0.523
- relative viability (Adavosertib + Foretinib; first compound 0.03162 µM): 0.682
- relative viability (Adavosertib + Foretinib; first compound 0.1 µM): 0.566
- relative viability (Adavosertib + Foretinib; first compound 0.3162 µM): 0.695
- relative viability (Nelarabine + OSI-027; first compound 0.01 µM): 0.328
- relative viability (Nelarabine + OSI-027; first compound 0.03162 µM): 0.293
- relative viability (Nelarabine + OSI-027; first compound 0.1 µM): 0.541
- relative viability (Nelarabine + OSI-027; first compound 0.3162 µM): 0.296
- relative viability (Nelarabine + OSI-027; first compound 1 µM): 0.301
- relative viability (Nelarabine + Olaparib; first compound 0.01 µM): 1.3
- relative viability (Nelarabine + Olaparib; first compound 0.03162 µM): 1.08
- relative viability (Nelarabine + Olaparib; first compound 0.1 µM): 1.11
- relative viability (Nelarabine + Olaparib; first compound 0.3162 µM): 1.04
- relative viability (Nelarabine + Olaparib; first compound 1 µM): 1.25
